Reference: US9095126B2, “Targeting TGF-β as a therapy for Alzheimer's disease” (Yale University, priority 2008, dated 2015)

What was measured:
[1] = system: bone morphogenic protein-activated Smad1/5/8 signaling; assay: Western blot for phosphorylated Smad1/5/8 (alternate bone morphogenic protein-activated signaling) in peripheral macrophages; format: cell-based, mouse; details: for ratio of phospho-Smad1/5/8 to phospho-Smad2/3: ALK5 inhibitor treatment alone, 0.1, 1.0 or 10.0 μM, peripheral macrophages (FIG. 9A)
Method: (§1) Cortical microglia were isolated from neonatal (1-2 day-old) CD11c-DNR or wild-type C57BL/6 mice according to previously published methods (Tan et al., 1999 Science 286: 2352-2355; Town et al., 2006 J. Immunol, 176: 3804-3812), Briefly, brains were isolated under sterile conditions and cerebral cortices were incubated in tripsin-EDTA (Invitrogen-Gibco) for 15 min at 37° C. Complete RPMI 1640 medium (supplemented with 10% FCS and 1 mM penicillin-streptomycin) was then added and brains were dissociated by trituration. Subsequently, cerebral cortex material was plated in 25 cm^2 flasks (Fisher Scientific), and the media was changed every 2-3 days. When the appearance of microglia was noted (typically 14 days after plating), culture media was exchanged with RPMI 1640 medium supplemented with 5% FCS, and the microglia were isolated by shaking in an incubator-shaker at 200 rpm for 2 h at 37° C. Peripheral MΦ were isolated from adult CD11c-DNR or wild-type C57BL/6 mice according to standard immunological methods by intraperitoneally (i.p.) injecting mice with 900 μL of 3% (w/v) sterile thioglycollate solution diluted in PBS. Four days later, mice were injected i.p. with 10 mL of ice-cold PBS for peritoneal lavage. Peripheral MΦ were then plated with complete medium (DMEM supplemented with 10% FCS and 1 mM penicillin streptomycin) and allowed to rest overnight. […] Microglia or peripheral MΦ from wild-type or CD11c-DNR mice were plated at 1×10^6 cells/well in 6-well tissue culture plates (BD Biosciences-Falcon) containing complete RPMI 1640 media or complete DMEM, respectively. These cells were then treated with a dose-range of recombinant TGF-β1 (R&D Systems; 1, 5, or 10 ng/mL) in the presence or absence of lipopolysachharide (LPS, 50 ng/mL) for 30 min. In a separate set of experiments, these cells were pre-treated for 1 h with ALK5 inhibitors SB-505124 or SB-431542 (Sigma-Aldrich; used at 0.1, 1.0, or 10.0 μM) and 5 ng/mL of recombinant TGF-β1 was added. For Aβ phagocytosis assay, MΦ were pulse-chased with Aβ as described elsewhere herein. Cells were rinsed in ice-cold PBS three times, and lysed ice-cold lysis buffer (containing 20 mM Tris-HCl pH 7.5, 150 mM NaCl, 1 mM Na2EDTA, 1 mM EGTA, 1% v/v Triton X-100, 2.5 mM sodium pyrophosphate, 1 mM glycerophosphate, 1 mM Na3VO4, 1 μg/ml leupeptin, and 1 mM PMSF). After lysis for 30 min on ice, cell lysates were centrifuged at 15,000×g for 30 min, and supernatants were aliquoted for Western blot analysis. Protein concentration was determined using the Bradford method, and aliquots corresponding to 50 μg of protein were run out on 12% Nu-PAGE™ polyacrylamide gels (Invitrogen) and proteins were transferred electrophoretically to Immobilon-P polyvinylidene difluoride membranes (Millipore). Membranes were blocked in blocking buffer (5% w/v nonfat dry milk in Tris-buffered saline containing 1% v/v Tween-20) for 3 h at ambient temperature and incubated overnight at 4° C. with primary polyclonal antibodies directed against total or phosphorylated SMAD2/3, SMAD1/5/8, PAK2, or ERK1/2 (Cell Signaling Technology). Membranes were then rinsed three times for 5 min each in dH2O, and incubated with anti-rabbit secondary antibody conjugated with horseradish peroxidase (diluted at 1/2000 in blocking buffer; GE Healthcare-Amersham Biosciences). After an additional three rinses for 5 min each in dH2O, the membranes were incubated for 5 min at ambient temperature with the enhanced chemiluminescence substrate (Thermo Fisher Scientific-Pierce Biotechnology), exposed to film, and developed.

[2] = system: peripheral macrophages; assay: Aβ phagocytosis assay, Aβ488 pulse-chase, confocal microscopy; format: cell-based, mouse; details: primary macrophages with ALK5 inhibitor 1 h, pulsed 4 h with pre-aggregated Aβ488, chased 15 min (FIG. 9B-9C)
Method: FIG. 9, comprising FIGS. 9A-9F, is a series of images depicting Activin-like kinase (ALK) inhibition increases the ratio of phospho-SMAD1/5/8 to phospho-SMAD2/3 and promotes macrophage Aβ phagocytosis. FIG. 9A depicts peripheral MΦ pre-treated with a dose range (0.1, 1.0, or 10.0 μM) of ALK5 inhibitors (SB-505124 or SB-431542) for 1 h and then cultured in the presence or absence of recombinant TGF-β1 (5 ng/mL) for 30 min as indicated. Upper panels show Western blots for phospho (p) or total forms of SMAD2/3 or SMAD1/5/8. Lower panel is a histogram showing the ratio of pSMAD1/5/8 to pSMAD2/3. […] FIG. 9C depicts quantification of confocal images (n=3 randomly selected 10× magnification fields per group, group means±s.d.), and Aβ488-labeled area is shown in the upper graph, and numbers of Aβ488 phagocytic cells/field are shown in the lower graph. FIGS. 9D-9F depict gender-dependent reductions in Aβ levels in Tg2576+ animals and anti-inflammatory responses in brains of crossed mice. Biochemical analyses of (FIG. 9D) detergent-soluble and (FIG. 9E) guanidine HCl-soluble Aβ1-42 and Aβ1-42/Aβ1-40 in male vs. female Tg2576 positive mice (irrespective of CD11c-DNR transgene status). FIG. 9F depicts Q-PCR results for Tnfa (left) or Il10 (right) expression (relative to Hprt1) shown for four groups of mice, and statistical comparisons vs. wild-type mice. […]

[3] = system: TGF-β-activated Smad2/3 signaling; assay: Western blot for phosphorylated Smad2/3 (canonical TGF-β-activated signaling) in primary macrophages/microglia; format: cell-based, mouse; details: for TGF-β1-induced Smad2/3 phosphorylation: peripheral macrophages pre-treated 1 h with 0.1, 1.0 or 10.0 μM ALK5 inhibitor, then TGF-β1 5 ng/mL for 30 min (FIG. 9A); for phosphorylated Smad2/3 after TGF-β1 challenge: TGF-β1 1, 5 or 10 ng/ml with or without LPS 50 ng/ml, 30 min (FIG. 7A)
Method: as §1

[4] = system: microglia; details: exogenous addition of TGF-β1 to microglia (Wyss-Coray et al., 2001); cited from earlier work
[5] = system: p21-activated kinase 2 (PAK2); assay: Western blot for phosphorylated PAK2 in peripheral macrophages; format: cell-based, mouse; details: wild-type peripheral macrophages; for PAK2 phosphorylation: 30 min, TGF-β1 5 ng/mL alone, BMP-2 50-200 ng/mL or BMP-4 12.5-50 ng/mL (FIG. 12B)
Method: Cortical microglia were isolated from neonatal (1-2 day-old) CD11c-DNR or wild-type C57BL/6 mice according to previously published methods (Tan et al., 1999 Science 286: 2352-2355; Town et al., 2006 J. Immunol, 176: 3804-3812), Briefly, brains were isolated under sterile conditions and cerebral cortices were incubated in tripsin-EDTA (Invitrogen-Gibco) for 15 min at 37° C. Complete RPMI 1640 medium (supplemented with 10% FCS and 1 mM penicillin-streptomycin) was then added and brains were dissociated by trituration. Subsequently, cerebral cortex material was plated in 25 cm^2 flasks (Fisher Scientific), and the media was changed every 2-3 days. When the appearance of microglia was noted (typically 14 days after plating), culture media was exchanged with RPMI 1640 medium supplemented with 5% FCS, and the microglia were isolated by shaking in an incubator-shaker at 200 rpm for 2 h at 37° C. Peripheral MΦ were isolated from adult CD11c-DNR or wild-type C57BL/6 mice according to standard immunological methods by intraperitoneally (i.p.) injecting mice with 900 μL of 3% (w/v) sterile thioglycollate solution diluted in PBS. Four days later, mice were injected i.p. with 10 mL of ice-cold PBS for peritoneal lavage. Peripheral MΦ were then plated with complete medium (DMEM supplemented with 10% FCS and 1 mM penicillin streptomycin) and allowed to rest overnight.
Microglia or peripheral MΦ from wild-type or CD11c-DNR mice were plated at 1×10^6 cells/well in 6-well tissue culture plates (BD Biosciences-Falcon) containing complete RPMI 1640 media or complete DMEM, respectively. These cells were then treated with a dose-range of recombinant TGF-β1 (R&D Systems; 1, 5, or 10 ng/mL) in the presence or absence of lipopolysachharide (LPS, 50 ng/mL) for 30 min. […] Protein concentration was determined using the Bradford method, and aliquots corresponding to 50 μg of protein were run out on 12% Nu-PAGE™ polyacrylamide gels (Invitrogen) and proteins were transferred electrophoretically to Immobilon-P polyvinylidene difluoride membranes (Millipore). […]

[6] = peripherally isolated macrophages, exogenous TGF-β1 5 ng/mL, 30 min (FIG. 9A)
[7] = wild-type peripheral macrophages, 30 min, TGF-β1 5 ng/mL alone, BMP-2 50-200 ng/mL or BMP-4 12.5-50 ng/mL (FIG. 12B)

Molecule	ratio of phospho-Smad1/5/8 to phospho-Smad2/3 [1]	macrophage Aβ phagocytosis (Aβ488-labeled area, Aβ488 phagocytic cells/field) [2]	TGF-β1-induced Smad2/3 phosphorylation [3]	Smad1/5/8 phosphorylation [1, 7]	Smad2/3 phosphorylation [3, 7]	PAK2 phosphorylation [5]	further results
NC(=O)c1ccc(-c2nc(-c3ccc4c(c3)OCO4)c(-c3ccccn3)[nH]2)cc1 [SB-431542, reference compound]	increased	increased Aβ phagocytosis in a dose-dependent fashion	blocked by ALK5 inhibition in a dose-dependent manner				
Cc1cccc(-c2[nH]c(C(C)(C)C)nc2-c2ccc3c(c2)OCO3)n1 [SB-505124, reference compound]	increased	increased Aβ phagocytosis in a dose-dependent fashion	blocked by ALK5 inhibition in a dose-dependent manner				
TGF-β1: recombinant TGF-β1 (R&D Systems), cytokine				little impact	promoted Smad2/3 phosphorylation	little impact	Smad1/5/8 phosphorylation ([1]; CD11c-DNR macrophages, exogenous TGF-β1 and LPS together (FIG. 7B)): further augmented; Smad1/5/8 phosphorylation [1, 6]: increased phosphorylation; Aβ uptake by microglia [4]: promotes increased Aβ uptake; phosphorylated Smad2/3 after TGF-β1 challenge ([3]; CD11c-DNR macrophages): nonresponsive; phosphorylated Smad2/3 after TGF-β1 challenge ([3]; CD11c-DNR microglia): responded to challenge; Smad2/3 phosphorylation ([3]; TGF-β1 5 ng/mL added to the BMP treatment conditions, wild-type peripheral macrophages): further promoted; Smad2/3 phosphorylation [3, 6]: increased phosphorylation; phosphorylated Smad2/3 after TGF-β1 challenge ([3]; wild-type microglia and macrophages): showed phosphorylated Smad2/3; BMP-induced PAK2 phosphorylation ([5]; TGF-β1 5 ng/mL added to the BMP treatment conditions): inhibited
BMP-4: recombinant BMP-4, bone morphogenic protein (protein, UniProt P12644 293-408, looked up) Bone morphogenetic protein 4: SPKHHSQRARKKNKNCRRHSLYVDFSDVGWNDWIVAPPGYQAFYCHGDCPFPLADHLNSTNHAIVQTLVNSVNSSIPKACCVPTELSAISMLYLDEYDKVVLKNYQEMVVEGCGCR				promoted	did not impact	promoted	ratio of pSmad1/5/8 to pSmad2/3 ([1]; BMP monotreatment compared with TGF-β1 treatment alone, wild-type peripheral macrophages): increased
